The results in this text go back to publication PMC4822259 (Parasites & Vectors, 2016).

Format in all cases: cell-based
Assay [1] concerns the target T1, AgDOP2 (Anopheles gambiae, UniProt A0A1W5KQ45).
T1 sequence (A0A1W5KQ45 1-495): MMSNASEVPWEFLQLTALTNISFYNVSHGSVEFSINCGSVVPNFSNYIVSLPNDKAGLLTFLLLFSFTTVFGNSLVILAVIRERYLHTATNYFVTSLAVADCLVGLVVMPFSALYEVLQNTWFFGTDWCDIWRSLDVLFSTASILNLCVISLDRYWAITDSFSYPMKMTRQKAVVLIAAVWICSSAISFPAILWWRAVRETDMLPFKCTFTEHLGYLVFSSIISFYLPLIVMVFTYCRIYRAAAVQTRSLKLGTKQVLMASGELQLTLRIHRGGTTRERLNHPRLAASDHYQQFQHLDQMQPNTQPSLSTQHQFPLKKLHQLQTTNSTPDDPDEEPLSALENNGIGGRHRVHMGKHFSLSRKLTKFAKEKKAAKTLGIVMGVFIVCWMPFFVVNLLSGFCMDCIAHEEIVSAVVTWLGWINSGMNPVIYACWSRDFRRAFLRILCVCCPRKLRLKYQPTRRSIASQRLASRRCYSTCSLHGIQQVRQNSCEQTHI
The assay is described as follows: IP-One HTRF IP1 accumulation, inhibition of dopamine response, HEK-293. (In general: In TR-FRET formats the signal depends on donor and acceptor labels being close together.)

A further assay deals with T2, AaDOP2 (Aedes aegypti, UniProt H6D5H2).
T2 construct: gene dop2; receptor expressed in HEK-293 cells, from authors' previous work
T2 sequence (H6D5H2 1-476): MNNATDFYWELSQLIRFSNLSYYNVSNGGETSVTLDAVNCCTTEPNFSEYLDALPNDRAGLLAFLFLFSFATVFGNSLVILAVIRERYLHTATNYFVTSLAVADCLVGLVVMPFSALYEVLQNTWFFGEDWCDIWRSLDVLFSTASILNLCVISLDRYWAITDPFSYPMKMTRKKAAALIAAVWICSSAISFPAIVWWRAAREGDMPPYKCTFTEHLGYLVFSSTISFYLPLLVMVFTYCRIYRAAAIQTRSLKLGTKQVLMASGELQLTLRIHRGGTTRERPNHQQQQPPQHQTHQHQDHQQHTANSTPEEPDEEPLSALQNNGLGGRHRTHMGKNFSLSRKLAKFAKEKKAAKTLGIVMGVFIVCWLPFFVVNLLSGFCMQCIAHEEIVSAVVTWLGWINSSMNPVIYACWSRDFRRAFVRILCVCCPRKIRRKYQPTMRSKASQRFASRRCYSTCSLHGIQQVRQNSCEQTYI
The description is as above.

A further assay concerns the target T3, CqDOP2 (Culex quinquefasciatus, UniProt A0A0B5H0X6).
T3 construct: gene DOP2; receptor expressed in HEK-293 cells, from authors' previous work
T3 sequence (A0A0B5H0X6 1-479): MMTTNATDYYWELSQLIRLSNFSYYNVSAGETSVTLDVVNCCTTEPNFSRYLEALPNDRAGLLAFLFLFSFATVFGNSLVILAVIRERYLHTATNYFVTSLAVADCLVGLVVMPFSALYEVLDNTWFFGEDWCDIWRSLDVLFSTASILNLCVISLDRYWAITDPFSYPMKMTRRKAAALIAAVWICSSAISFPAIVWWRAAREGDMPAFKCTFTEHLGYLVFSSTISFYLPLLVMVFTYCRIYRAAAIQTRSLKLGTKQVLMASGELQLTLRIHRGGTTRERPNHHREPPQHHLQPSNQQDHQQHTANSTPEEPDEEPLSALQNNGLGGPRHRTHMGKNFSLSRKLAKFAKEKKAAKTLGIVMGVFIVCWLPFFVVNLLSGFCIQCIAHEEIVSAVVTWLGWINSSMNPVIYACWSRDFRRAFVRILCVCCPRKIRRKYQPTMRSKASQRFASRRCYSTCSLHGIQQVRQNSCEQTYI
Described as above.

For assay [2], the target named is T1, AgDOP2. Nature of the assay: IP-One HTRF IP1 accumulation, agonist stimulation, HEK-293.

On to `CN(C)CCC=C1c2ccccc2CCc2ccccc21` [Amitriptyline], for which the results for the IC50 against AgDOP2 [1], against AaDOP2 and against CqDOP2 were 230 ± 20 nM, 50 ± 3 nM and 80 ± 7 nM, respectively.
`CCNC(=O)N1CCN(CCCC(c2ccc(F)cc2)c2ccc(F)cc2)CC1` [Amperozide]: the IC50 – broadly, the concentration needed to halve the response being measured – against AgDOP2 [1] was 18800 ± 11000 nM; against AaDOP2, 5100 ± 1000 nM; against CqDOP2 it was 2600 ± 600 nM.
Turning to `CN1CC2c3ccccc3Oc3ccc(Cl)cc3C2C1` (stereo not drawn) [Asenapine], the values for the IC50 against AgDOP2 [1], against AaDOP2 and against CqDOP2 were 0.7 ± 0.08 nM, 3 ± 0.5 nM and 20 ± 4 nM, respectively.
As for `CN(C)CC/C=C1/c2ccccc2Sc2ccc(Cl)cc21` [Chlorprothixene], the IC50 against AgDOP2 [1] is 400 ± 7 nM; against CqDOP2, 10 ± 2 nM.
For `CSc1ccc2c(c1)C(N1CCN(C)CC1)Cc1ccccc1S2` (stereo not drawn) [Methiothepin], the values for the IC50 at AgDOP2 [1], at AaDOP2 and at CqDOP2 were 140 ± 8 nM, 3 ± 1 nM and 10 ± 5 nM, respectively.
In the same order, the values of `CN1CCc2cc(Cl)c(O)cc2[C@@H](c2ccccc2)C1` [SCH23390] are 3600 ± 800 nM, 4700 ± 800 nM and 8300 ± 1000 nM.
`NCCc1ccc(O)c(O)c1` [dopamine]: at AgDOP2 [2], the EC50 – broadly, the concentration giving half of the maximal effect – turned out to be 4700 ± 400 nM.
